In ChEMBL document CHEMBL4251541, “Microwave-enhanced Friedländer synthesis for the rapid assembly of halogenated quinolines with antibacterial and biofilm eradication activities against drug resistant and tolerant bacteria” (Medchemcomm, 2017):
≈ marks a conversion by molar mass, not a printed value.

Legend:
[1] = test system: Staphylococcus aureus; assay: Antibacterial activity against methicillin-resistant Staphylococcus aureus isolate 2 after 16 to 18 hrs by broth microdilution method; assay type: functional
[2] = test system: Staphylococcus aureus; assay: Antibiofilm activity against methicillin-resistant Staphylococcus aureus isolate 2 after 24 hrs by calgary biofilm device-based assay; assay type: functional
[3] = test system: Staphylococcus epidermidis; assay: Antibacterial activity against methicillin-resistant Staphylococcus epidermidis ATCC 35984 after 16 to 18 hrs by broth microdilution method; assay type: functional
[4] = test system: Staphylococcus epidermidis; assay: Antibiofilm activity against methicillin-resistant Staphylococcus epidermidis ATCC 35984 after 24 hrs by calgary biofilm device-based assay; assay type: functional
[5] = test system: Enterococcus faecium; assay: Antibacterial activity against vancomycin-resistant Enterococcus faecium ATCC 700221 after 16 to 18 hrs by broth microdilution method; assay type: functional
[6] = test system: Enterococcus faecium; assay: Antibiofilm activity against vancomycin-resistant Enterococcus faecium ATCC 700221 after 24 hrs by calgary biofilm device-based assay; assay type: functional
[7] = Hemolytic activity in human RBC at 200 uM after 1 hr relative to control; assay type: ADME, cell-based, Erythrocyte; conditions: red blood cells (erythrocytes), read-out: Activity
[8] = test system: Staphylococcus aureus; assay: Bactericidal activity against methicillin-resistant Staphylococcus aureus isolate 2 after 24 hrs by calgary biofilm device-based assay; assay type: functional; conditions: isolate 2, 24 h
[9] = test system: Staphylococcus epidermidis; assay: Bactericidal activity against methicillin-resistant Staphylococcus epidermidis ATCC 35984 after 24 hrs by calgary biofilm device-based assay; assay type: functional; conditions: ATCC 35984, 24 h
[10] = test system: Enterococcus faecium; assay: Bactericidal activity against vancomycin-resistant Enterococcus faecium ATCC 700221 after 24 hrs by calgary biofilm device-based assay; assay type: functional; conditions: ATCC 700221, 24 h
[11] = test system: Staphylococcus aureus; assay: Antibiofilm activity against methicillin-resistant Staphylococcus aureus BAA 1707 after 24 hrs by calgary biofilm device-based assay; assay type: functional
[12] = test system: Staphylococcus aureus; assay: Bactericidal activity against methicillin-resistant Staphylococcus aureus BAA 1707 after 24 hrs by calgary biofilm device-based assay; assay type: functional; conditions: BAA 1707, 24 h

Structure (SMILES)	MIC [1]	MBEC [2]	MIC [3]	MBEC [4]	MIC [5]	MBEC [6]	hemolysis at 1 h, 200 µM [7]	MBC [8]	MBC [9]	MBC [10]	MBEC [11]	MBC [12]
CCCCCCCCCCCC[N+](C)(C)CC[N+](C)(C)CC[N+](C)(C)CCCCCCCCCCCC	3.13 µM	125 µM	2.35 µM	31.3 µM	2.35 µM	3 µM	> 99%	31.3 µM	31.3 µM	3 µM		
CC(=O)c1cc2c(Br)cc(Br)c(O)c2nc1C	1.56 µM (≈ 0.56 µg/mL)	>1000 µM	6.25 µM (≈ 2.24 µg/mL)		25 µM (≈ 8.98 µg/mL)		2.3%	250 µM (≈ 89.8 µg/mL)				
Cc1nc2c(O)c(Br)cc(Br)c2cc1C(=O)O/C(=N\C1CCCCC1)NC1CCCCC1	12.5 µM (≈ 7.09 µg/mL)		1.56 µM (≈ 0.885 µg/mL)		25 µM (≈ 14.2 µg/mL)		≤ 1%					
Cc1nc2c(O)c(Br)cc(Br)c2cc1C(=O)N1CCOCC1	100 µM (≈ 43 µg/mL)		50 µM (≈ 21.5 µg/mL)		> 100 µM		≤ 1%					
Cc1nc2c(O)c(Br)cc(Br)c2cc1C(=O)c1ccccc1	0.59 µM (≈ 0.248 µg/mL)	23.5 µM	3.13 µM (≈ 1.32 µg/mL)	1 µM	0.78 µM (≈ 0.328 µg/mL)	23.5 µM	2.5%	15.6 µM (≈ 6.57 µg/mL)	5.9 µM (≈ 2.48 µg/mL)	46.9 µM (≈ 19.7 µg/mL)	3.9 µM	7.8 µM (≈ 3.28 µg/mL)
Oc1c(Br)cc(Br)c2ccc(-c3ccccc3)nc12	25 µM (≈ 9.48 µg/mL)				> 100 µM		1.9%					
COC(=O)c1cc2c(Br)cc(Br)c(O)c2nc1C	1.56 µM (≈ 0.585 µg/mL)		0.3 µM (≈ 0.113 µg/mL)		2.35 µM (≈ 0.881 µg/mL)		1.5%					
CCCNC(=O)c1cc2c(Br)cc(Br)c(O)c2nc1C	37.5 µM (≈ 15.1 µg/mL)		12.5 µM (≈ 5.03 µg/mL)		50 µM (≈ 20.1 µg/mL)		7%					
Cc1cnc2c(O)c(Br)cc(Br)c2c1	3.13 µM (≈ 0.992 µg/mL)	46.9 µM	1.17 µM (≈ 0.371 µg/mL)	31.3 µM		5.9 µM	≤ 1%	15.6 µM (≈ 4.94 µg/mL)	23.5 µM (≈ 7.45 µg/mL)	7.8 µM (≈ 2.47 µg/mL)		
CCOC(=O)c1c(C)nc2c(O)c(Br)cc(Br)c2c1C	6.25 µM (≈ 2.52 µg/mL)		1.17 µM (≈ 0.472 µg/mL)		4.69 µM (≈ 1.89 µg/mL)		≤ 1%					
Oc1c(Br)cc(Br)c2cc(Cc3ccccc3)cnc12	50 µM (≈ 19.7 µg/mL)		3.13 µM (≈ 1.23 µg/mL)		18.8 µM (≈ 7.39 µg/mL)		4.6%					
Cc1nc2c(O)c(Br)cc(Br)c2cc1C(=O)OCc1ccccc1	6.25 µM (≈ 2.82 µg/mL)	>1000 µM	0.1 µM (≈ 0.0451 µg/mL)	15.6 µM	0.3 µM (≈ 0.135 µg/mL)	1.5 µM	7.9%	375 µM (≈ 169 µg/mL)	46.9 µM (≈ 21.2 µg/mL)	3.9 µM (≈ 1.76 µg/mL)		
Oc1c(Br)cc(Br)c2ccc(-c3ccccn3)nc12	37.5 µM (≈ 14.3 µg/mL)				25 µM (≈ 9.5 µg/mL)		≤ 1%					
Cc1nc2c(O)c(Br)cc(Br)c2cc1C(=O)O	50 µM (≈ 18 µg/mL)		25 µM (≈ 9.02 µg/mL)		> 100 µM		2.5%					
CCOC(=O)c1cc2c(Br)cc(Br)c(O)c2nc1C	0.39 µM (≈ 0.152 µg/mL)	31.3 µM	0.1 µM (≈ 0.0389 µg/mL)	23.5 µM	0.78 µM (≈ 0.303 µg/mL)	2 µM	2.2%	31.3 µM (≈ 12.2 µg/mL)	93.8 µM (≈ 36.5 µg/mL)	3 µM (≈ 1.17 µg/mL)		
CCc1cnc2c(O)c(Br)cc(Br)c2c1	6.25 µM (≈ 2.07 µg/mL)	188 µM	0.59 µM (≈ 0.195 µg/mL)	46.9 µM	12.5 µM (≈ 4.14 µg/mL)	23.5 µM	2.4%	46.9 µM (≈ 15.5 µg/mL)	62.5 µM (≈ 20.7 µg/mL)	31.3 µM (≈ 10.4 µg/mL)		
CCc1nc2c(O)c(Br)cc(Br)c2cc1C	6.25 µM (≈ 2.16 µg/mL)	>1000 µM	0.15 µM (≈ 0.0518 µg/mL)		0.78 µM (≈ 0.269 µg/mL)		≤ 1%	> 1000 µM				
Cc1nc2c(O)c(Br)cc(Br)c2cc1C(=O)NCc1ccccc1	6.25 µM (≈ 2.81 µg/mL)	>1000 µM	6.25 µM (≈ 2.81 µg/mL)		25 µM (≈ 11.3 µg/mL)		13%	> 2000 µM				
Cc1ccc2c(Br)cc(Br)c(O)c2n1 [BROQUINALDOL]		46.9 µM	0.2 µM (≈ 0.0634 µg/mL)	3 µM	2.35 µM (≈ 0.745 µg/mL)	2 µM	≤ 1%	23.5 µM (≈ 7.45 µg/mL)	7.8 µM (≈ 2.47 µg/mL)	3 µM (≈ 0.951 µg/mL)	31.3 µM	31.3 µM (≈ 9.92 µg/mL)
CCCCCCCCCC(=O)N[C@@H](Cc1c[nH]c2ccccc12)C(=O)N[C@@H](CC(N)=O)C(=O)N[C@@H](CC(=O)O)C(=O)N[C@@H]1C(=O)NCC(=O)N[C@@H](CCCN)C(=O)N[C@@H](CC(=O)O)C(=O)N[C@H](C)C(=O)N[C@@H](CC(=O)O)C(=O)NCC(=O)N[C@H](CO)C(=O)N[C@@H]([C@H](C)CC(=O)O)C(=O)N[C@@H](CC(=O)c2ccccc2N)C(=O)O[C@@H]1C [DAPTOMYCIN]		>2000 µM	12.5 µM (≈ 20.3 µg/mL)					62.5 µM (≈ 101 µg/mL)				
CC(=O)NC[C@H]1CN(c2ccc(N3CCOCC3)c(F)c2)C(=O)O1 [LINEZOLID]	3.13 µM (≈ 1.06 µg/mL)	>2000 µM	3.13 µM (≈ 1.06 µg/mL)		3.13 µM (≈ 1.06 µg/mL)		≤ 1%					
CN[C@H](CC(C)C)C(=O)N[C@H]1C(=O)N[C@@H](CC(N)=O)C(=O)N[C@H]2C(=O)N[C@H]3C(=O)N[C@H](C(=O)N[C@H](C(=O)O)c4cc(O)cc(O)c4-c4cc3ccc4O)[C@H](O)c3ccc(c(Cl)c3)Oc3cc2cc(c3O[C@@H]2O[C@H](CO)[C@@H](O)[C@H](O)[C@H]2O[C@H]2C[C@](C)(N)[C@H](O)[C@H](C)O2)Oc2ccc(cc2Cl)[C@H]1O [VANCOMYCIN]		>2000 µM		>2000 µM	> 100 µM	200 µM	≤ 1%	3 µM (≈ 4.35 µg/mL)		> 200 µM	>2000 µM	3.9 µM (≈ 5.65 µg/mL)
